According to the NIST ThermoML archive (doi:10.1021/je2008582):

Conditions: Liquid, Vibrating tube method

CCCCCCCC/C=C\CCCCCCCC(=O)OC [methyl cis-9-octadecenoate]
Conditions	mass density [kg/m3]
270 K, 490 kPa	892.3
270 K, 990 kPa	892.6
270 K, 1990 kPa	893.2
270 K, 2990 kPa	893.7
270 K, 3990 kPa	894.3
270 K, 4990 kPa	894.8
270 K, 9990 kPa	897.4
270 K, 19990 kPa	902.4
270 K, 29990 kPa	907.1
270 K, 39990 kPa	911.7
270 K, 49830 kPa	915.9
290 K, 490 kPa	877.7
290 K, 1000 kPa	878
290 K, 2000 kPa	878.6
290 K, 3000 kPa	879.2
290 K, 3990 kPa	879.8
290 K, 4990 kPa	880.4
290 K, 10000 kPa	883.3
290 K, 19990 kPa	888.7
290 K, 29990 kPa	893.8
290 K, 39990 kPa	898.7
290 K, 49960 kPa	903.4
310 K, 490 kPa	863.3
310 K, 990 kPa	863.6
310 K, 2000 kPa	864.3
310 K, 3000 kPa	865
310 K, 4000 kPa	865.6
310 K, 5000 kPa	866.2
310 K, 9990 kPa	869.3
310 K, 20000 kPa	875.3
310 K, 29990 kPa	880.8
310 K, 39990 kPa	886.1
310 K, 49990 kPa	891.1
330 K, 500 kPa	849
330 K, 1000 kPa	849.3
330 K, 2000 kPa	850.1
330 K, 3000 kPa	850.8
330 K, 3990 kPa	851.5
330 K, 4990 kPa	852.2
330 K, 10000 kPa	855.6
330 K, 19990 kPa	862
330 K, 29990 kPa	868
330 K, 39990 kPa	873.6
330 K, 49990 kPa	878.9
350 K, 500 kPa	834.6
350 K, 990 kPa	835
350 K, 2000 kPa	835.8
350 K, 2990 kPa	836.6
350 K, 3990 kPa	837.3
350 K, 5000 kPa	838.1
350 K, 9990 kPa	841.8
350 K, 20000 kPa	848.8
350 K, 30000 kPa	855.3
350 K, 40000 kPa	861.3
350 K, 49980 kPa	867
370 K, 500 kPa	820.1
370 K, 990 kPa	820.6
370 K, 1990 kPa	821.4
370 K, 2990 kPa	822.3
370 K, 3990 kPa	823.2
370 K, 5010 kPa	824
370 K, 10000 kPa	828.1
370 K, 20010 kPa	835.7
370 K, 29990 kPa	842.6
370 K, 39990 kPa	849.1
370 K, 49970 kPa	855.1
390 K, 490 kPa	805.7
390 K, 990 kPa	806.2
390 K, 2000 kPa	807.1
390 K, 3000 kPa	808.1
390 K, 3990 kPa	809
390 K, 5000 kPa	810
390 K, 10000 kPa	814.5
390 K, 19990 kPa	822.7
390 K, 29980 kPa	830.2
390 K, 40000 kPa	837.2
390 K, 49990 kPa	843.6
410 K, 490 kPa	791
410 K, 990 kPa	791.6
410 K, 2000 kPa	792.7
410 K, 3000 kPa	793.7
410 K, 3990 kPa	794.8
410 K, 5000 kPa	795.8
410 K, 10000 kPa	800.8
410 K, 20000 kPa	809.8
410 K, 30000 kPa	817.9
410 K, 39990 kPa	825.3
410 K, 50000 kPa	832.2
430 K, 500 kPa	776.2
430 K, 1000 kPa	776.8
430 K, 1990 kPa	778
430 K, 3000 kPa	779.2
430 K, 3990 kPa	780.3
430 K, 4990 kPa	781.5
430 K, 9990 kPa	786.9
430 K, 19990 kPa	796.7
430 K, 29990 kPa	805.5
430 K, 39990 kPa	813.5
430 K, 49990 kPa	820.8
450 K, 490 kPa	761.2
450 K, 1000 kPa	761.9
450 K, 1990 kPa	763.2
450 K, 2990 kPa	764.5
450 K, 3990 kPa	765.8
450 K, 5000 kPa	767.1
450 K, 10000 kPa	773.1
450 K, 20000 kPa	783.9
450 K, 29990 kPa	793.3
450 K, 39990 kPa	801.9
450 K, 50010 kPa	809.7
470 K, 490 kPa	746.3
470 K, 990 kPa	747
470 K, 2000 kPa	748.6
470 K, 2990 kPa	750
470 K, 3990 kPa	751.5
470 K, 5010 kPa	752.9
470 K, 10000 kPa	759.5
470 K, 19990 kPa	771.2
470 K, 29990 kPa	781.5
470 K, 39990 kPa	790.6
470 K, 49970 kPa	798.8

CCCCC/C=C\C/C=C\CCCCCCCC(=O)OC [methyl (Z,Z)-9,12-octadecadienate]
Conditions	mass density [kg/m3]
270 K, 490 kPa	904.6
270 K, 990 kPa	904.9
270 K, 1990 kPa	905.4
270 K, 3000 kPa	905.9
270 K, 3990 kPa	906.5
270 K, 5000 kPa	907
270 K, 10000 kPa	909.6
270 K, 20000 kPa	914.6
270 K, 29990 kPa	919.3
270 K, 39990 kPa	923.8
270 K, 49970 kPa	928.2
290 K, 500 kPa	889.7
290 K, 990 kPa	890
290 K, 1990 kPa	890.6
290 K, 2990 kPa	891.2
290 K, 3990 kPa	891.8
290 K, 5000 kPa	892.4
290 K, 9990 kPa	895.2
290 K, 19990 kPa	900.7
290 K, 30000 kPa	905.8
290 K, 39990 kPa	910.7
290 K, 49970 kPa	915.3
310 K, 500 kPa	875.1
310 K, 1000 kPa	875.4
310 K, 1990 kPa	876.1
310 K, 2990 kPa	876.7
310 K, 3990 kPa	877.4
310 K, 4990 kPa	878
310 K, 9990 kPa	881.1
310 K, 20000 kPa	887
310 K, 30000 kPa	892.5
310 K, 39990 kPa	897.8
310 K, 49990 kPa	902.8
330 K, 490 kPa	860.6
330 K, 990 kPa	860.9
330 K, 1990 kPa	861.6
330 K, 2990 kPa	862.4
330 K, 3990 kPa	863.1
330 K, 4990 kPa	863.8
330 K, 9990 kPa	867.1
330 K, 19990 kPa	873.5
330 K, 29980 kPa	879.5
330 K, 39990 kPa	885.1
330 K, 50000 kPa	890.4
350 K, 500 kPa	846.2
350 K, 1000 kPa	846.6
350 K, 1990 kPa	847.4
350 K, 2990 kPa	848.2
350 K, 3990 kPa	848.9
350 K, 5000 kPa	849.7
350 K, 9990 kPa	853.4
350 K, 19990 kPa	860.3
350 K, 29990 kPa	866.7
350 K, 40000 kPa	872.7
350 K, 49980 kPa	878.4
370 K, 490 kPa	831.6
370 K, 990 kPa	832.1
370 K, 1990 kPa	832.9
370 K, 2990 kPa	833.8
370 K, 4000 kPa	834.6
370 K, 5000 kPa	835.5
370 K, 10000 kPa	839.5
370 K, 19990 kPa	847
370 K, 29990 kPa	854
370 K, 39990 kPa	860.4
370 K, 49980 kPa	866.4
390 K, 490 kPa	817.1
390 K, 990 kPa	817.6
390 K, 1990 kPa	818.5
390 K, 3000 kPa	819.5
390 K, 3990 kPa	820.4
390 K, 4990 kPa	821.3
390 K, 9990 kPa	825.8
390 K, 20000 kPa	834
390 K, 29990 kPa	841.4
390 K, 40000 kPa	848.3
390 K, 49990 kPa	854.7
410 K, 490 kPa	802.5
410 K, 1000 kPa	803
410 K, 2000 kPa	804.1
410 K, 2990 kPa	805.1
410 K, 3990 kPa	806.2
410 K, 4990 kPa	807.2
410 K, 9990 kPa	812.1
410 K, 19990 kPa	821
410 K, 29990 kPa	829.1
410 K, 40000 kPa	836.5
410 K, 49970 kPa	843.3
430 K, 490 kPa	787.5
430 K, 1000 kPa	788.1
430 K, 1990 kPa	789.3
430 K, 2990 kPa	790.5
430 K, 3990 kPa	791.6
430 K, 5000 kPa	792.7
430 K, 9990 kPa	798.1
430 K, 19990 kPa	807.9
430 K, 29990 kPa	816.6
430 K, 40000 kPa	824.5
430 K, 50010 kPa	831.8
450 K, 490 kPa	772.5
450 K, 990 kPa	773.2
450 K, 2000 kPa	774.5
450 K, 2990 kPa	775.8
450 K, 4000 kPa	777.1
450 K, 4990 kPa	778.3
450 K, 10000 kPa	784.3
450 K, 19990 kPa	794.9
450 K, 30000 kPa	804.3
450 K, 39990 kPa	812.8
450 K, 49980 kPa	820.6
470 K, 500 kPa	757.5
470 K, 990 kPa	758.3
470 K, 1990 kPa	759.7
470 K, 3000 kPa	761.2
470 K, 3990 kPa	762.6
470 K, 4990 kPa	764
470 K, 9990 kPa	770.6
470 K, 19990 kPa	782.2
470 K, 29990 kPa	792.4
470 K, 39990 kPa	801.5
470 K, 49980 kPa	809.7
